From patent publication US20250161216A1, “CATIONIC LIPID ANALOGUES, COMPOSITIONS AND USES THEREOF” (GUANGZHOU LIDE BIOMEDICINE TECHNOLOGY CO., LTD., priority 2022, published 2025)

Columns and labels:
C57BL/6 mice [1] = test: In vivo expression level of Luciferase-mRNA delivered by intramuscular injection (bioluminescence imaging); conditions: mRNA-loaded nanoparticles, intramuscular (leg muscle), 5 μg Luciferase-mRNA, 6 hours
Protocol: Luciferase-mRNA was used as an mRNA model; and the cationic lipid analogues of Examples 1-5 were used to prepare drug-loaded nanoparticles according to the method of Example 6.
100 μL of nanoparticles containing 5 μg Luciferase-mRNA or the drug-loaded nanoparticles prepared above were injected into the leg muscles of 6-8 week-old C57BL/6 mice, and 200 μL of 1×PBS solution containing 3 mg D-Luciferin potassium salt was intraperitoneally injected into the mice 6 hours later. After waiting for 10 minutes, an in vivo expression level of the mRNA was evaluated by bioluminescence imaging.

C57BL/6 mice [2] = test: In vivo expression level of Luciferase-mRNA delivered by intravenous injection (bioluminescence imaging); conditions: mRNA-loaded nanoparticles, intravenous (tail vein), 5 μg Luciferase-mRNA, 6 hours; for Fluorescence intensity of liver: compounds of Example 1
In short: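 Lipid nanoparticles carrying 5 μg Luciferase-mRNA given by tail-vein injection to 6-8-week-old C57BL/6 mice. At 6 h, 3 mg D-luciferin i.p. in PBS; bioluminescence imaged 10 min later as the expression read-out.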

CCCCCCCCCCCCCCCCCC(=O)N(CCO)C(C(=O)NCCN(C)CCNC(=O)C(C(CC)CCCC)N(CCO)C(=O)CCCCCCCCCCCCCCCCC)C(CC)CCCC (stereo not drawn) [A4I4R22C18]
Local fluorescence intensity (C57BL/6 mice [1]; compounds of Example 2): 5.53E+05 | Fluorescence intensity of spleen (C57BL/6 mice [2]; compounds of Example 2): 5.51E+05

CCCCCCCC/C=C\CCCCCCCC(=O)N(CCC)C(C(=O)NCCN(C)CCNC(=O)C(C(C)C)N(CCC)C(=O)CCCCCCC/C=C\CCCCCCCC)C(C)C (stereo not drawn) [A1I4R21C18-1]
Local fluorescence intensity (C57BL/6 mice [1]; compounds of Example 2): 2.26E+07 | Fluorescence intensity of spleen (C57BL/6 mice [2]; compounds of Example 2): 2.76E+05

CCCCCCCCCCCCCCCCCCNC(=O)C(C(CC)CCCC)N(CCCN(C)C)C(=O)CCCCCCCCCCCCCCCCC (stereo not drawn) [A4I18R2C18]
Local fluorescence intensity (C57BL/6 mice [1]; compounds of Example 1): 9.04E+05 | Fluorescence intensity of liver (C57BL/6 mice [2]): 5.05E+05

CCCCCCCCCCSSCCC(=O)N(C1CCCCCC1)C(C(=O)NCCN(CCNC(=O)C(C(C)C)N(C(=O)CCSSCCCCCCCCCC)C1CCCCCC1)CCNC(=O)C(C(C)C)N(C(=O)CCSSCCCCCCCCCC)C1CCCCCC1)C(C)C (stereo not drawn) [A1I5R26S15]
Local fluorescence intensity (C57BL/6 mice [1]; compounds of Example 3): 9.90E+05 | Fluorescence intensity of spleen (C57BL/6 mice [2]; compounds of Example 3): 1.30E+05

CCCCCCCCCCCCCCCCCC(=O)N(CCOC)C(C(=O)NCCN(C)CCNC(=O)C(C1CCCCC1)N(CCOC)C(=O)CCCCCCCCCCCCCCCCC)C1CCCCC1 (stereo not drawn) [A23I4R23C18]
Local fluorescence intensity (C57BL/6 mice [1]; compounds of Example 2): 5.32E+05 | Fluorescence intensity of spleen (C57BL/6 mice [2]; compounds of Example 2): 1.49E+05

CCCCCCCCSSCCC(=O)N(CCO)C(C(=O)NCCN(CCNC(=O)C(C(C)C)N(CCO)C(=O)CCSSCCCCCCCC)CCNC(=O)C(C(C)C)N(CCO)C(=O)CCSSCCCCCCCC)C(C)C (stereo not drawn) [A1I5R22S13]
Local fluorescence intensity (C57BL/6 mice [1]; compounds of Example 3): 5.74E+05 | Fluorescence intensity of spleen (C57BL/6 mice [2]; compounds of Example 3): 1.60E+06

CCCCCCCCCCCCCCCCCC(=O)N(CCO)C(C(=O)NCCN(C)CCNC(=O)C(C1CCCCC1)N(CCO)C(=O)CCCCCCCCCCCCCCCCC)C1CCCCC1 (stereo not drawn) [A23I4R22C18]
Local fluorescence intensity (C57BL/6 mice [1]; compounds of Example 2): 3.41E+04 | Fluorescence intensity of spleen (C57BL/6 mice [2]; compounds of Example 2): 4.61E+05

CCCCCCCCCCSSCCC(=O)N(CC(OC)OC)C(C(=O)NCCN(CCNC(=O)C(C(C)C)N(CC(OC)OC)C(=O)CCSSCCCCCCCCCC)CCNC(=O)C(C(C)C)N(CC(OC)OC)C(=O)CCSSCCCCCCCCCC)C(C)C (stereo not drawn) [A1I5R34S15]
Local fluorescence intensity (C57BL/6 mice [1]; compounds of Example 3): 1.24E+06 | Fluorescence intensity of spleen (C57BL/6 mice [2]; compounds of Example 3): 2.84E+05

CCCCCCCCCCCCCCCCCC(=O)N(CCOC)C(C(=O)NCCN(C)CCNC(=O)C(C(C)C)N(CCOC)C(=O)CCCCCCCCCCCCCCCCC)C(C)C (stereo not drawn) [A1I4R23C18]
Local fluorescence intensity (C57BL/6 mice [1]; compounds of Example 2): 7.53E+04 | Fluorescence intensity of spleen (C57BL/6 mice [2]; compounds of Example 2): 1.51E+05

CCCCC/C=C\C/C=C\CCCCCCCC(=O)N(CCN1CCCCC1)C(C(=O)NCCCCCCCCCCCCCCCCCC)C(C)C (stereo not drawn) [A1I18R12C18-2]
Local fluorescence intensity (C57BL/6 mice [1]; compounds of Example 1): 3.38E+06 | Fluorescence intensity of liver (C57BL/6 mice [2]): 1.41E+03

CCCCCCCCCCCCCCCCCCNC(=O)C(C1CCCCC1)N(CCCN(C)C)C(=O)CCCCCCCCCCCCCCCCC (stereo not drawn) [A23I18R2C18]
Local fluorescence intensity (C57BL/6 mice [1]; compounds of Example 1): 4.83E+04 | Fluorescence intensity of liver (C57BL/6 mice [2]): 3.87E+05

CCCCCCCC/C=C\CCCCCCCC(=O)N(CCO)C(C(=O)NCCN(C)CCNC(=O)C(C(CC)CCCC)N(CCO)C(=O)CCCCCCC/C=C\CCCCCCCC)C(CC)CCCC (stereo not drawn) [A4I4R22C18-1]
Local fluorescence intensity (C57BL/6 mice [1]; compounds of Example 2): 5.47E+05 | Fluorescence intensity of spleen (C57BL/6 mice [2]; compounds of Example 2): 6.82E+05

CCCCC/C=C\C/C=C\CCCCCCCC(=O)N(CCN1CCCCC1)C(C(=O)NCCCCCCCCCCCCCCCCCC)C(CC)CCCC (stereo not drawn) [A4I18R12C18-2]
Local fluorescence intensity (C57BL/6 mice [1]; compounds of Example 1): 2.60E+05 | Fluorescence intensity of liver (C57BL/6 mice [2]): 9.22E+03

CCCCCCCCCCSSCCC(=O)N(CS(=O)(=O)O)C(C(=O)NCCN(CCNC(=O)C(C(C)C)N(CS(=O)(=O)O)C(=O)CCSSCCCCCCCCCC)CCNC(=O)C(C(C)C)N(CS(=O)(=O)O)C(=O)CCSSCCCCCCCCCC)C(C)C (stereo not drawn) [A1I5R41S15]
Local fluorescence intensity (C57BL/6 mice [1]; compounds of Example 3): 1.81E+05 | Fluorescence intensity of spleen (C57BL/6 mice [2]; compounds of Example 3): 4.22E+05

CCCCCCCCCCCCCCCCCC(=O)N(CCOC)C(C(=O)NCCN(C)CCNC(=O)C(C(CC)CCCC)N(CCOC)C(=O)CCCCCCCCCCCCCCCCC)C(CC)CCCC (stereo not drawn) [A4I4R23C18]
Local fluorescence intensity (C57BL/6 mice [1]; compounds of Example 2): 6.36E+04 | Fluorescence intensity of spleen (C57BL/6 mice [2]; compounds of Example 2): 2.16E+05
